PubChem BioAssay AID623925 (Vanderbilt Specialized Chemistry Center, 2012)
Active and inactive are the calls of the source.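 The calls were made as follows: active = compounds whose calcium response changes with concentration, giving a dose-dependent curve as judged by the depositor; inactive = the rest, with no dose-dependent response.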

Biological target: Muscarinic acetylcholine receptor M2 (Homo sapiens) (UniProt P08172)
Experiment: potentiation of ACh response at hM2 – CHO cells, Gqi5 chimera, calcium mobilization, selectivity assay for M4 PAM optimization, SAR follow-up (AID 623925)
Settings: ACh EC20 potentiation

Chain of Muscarinic acetylcholine receptor M2 (Homo sapiens) (P08172 whole entry, looked up): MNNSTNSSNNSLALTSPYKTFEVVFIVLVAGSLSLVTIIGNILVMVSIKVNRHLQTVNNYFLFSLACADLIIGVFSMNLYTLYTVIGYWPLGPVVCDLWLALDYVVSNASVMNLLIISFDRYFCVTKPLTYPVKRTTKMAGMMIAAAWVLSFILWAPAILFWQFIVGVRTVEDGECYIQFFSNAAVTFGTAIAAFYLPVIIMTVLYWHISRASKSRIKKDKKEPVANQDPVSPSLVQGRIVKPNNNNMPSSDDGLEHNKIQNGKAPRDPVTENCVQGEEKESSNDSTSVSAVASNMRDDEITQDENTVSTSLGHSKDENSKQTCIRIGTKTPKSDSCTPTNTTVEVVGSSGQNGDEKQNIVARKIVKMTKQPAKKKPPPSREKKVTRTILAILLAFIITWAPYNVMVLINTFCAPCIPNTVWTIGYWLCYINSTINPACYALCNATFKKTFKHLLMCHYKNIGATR

| SMILES | EC50 [nM] | outcome |
| --- | --- | --- |
| Cc1nc2sc(C(=O)NC3CC3)c(N)c2c(C)c1Cl | 548 |  |
| Cc1nc2sc(C(=O)NCc3ccc4c(c3)OCO4)c(N)c2c(C)c1Cl |  | inactive |
| Cc1nc2sc(C(=O)NCc3cccnc3)c(N)c2c(C)c1Cl |  | inactive |
| Cc1nc2sc(C(=O)NCc3ccccc3)c(N)c2c(C)c1Cl |  | inactive |
| Cc1nc2sc(C(=O)NCc3ccncc3)c(N)c2c(C)c1Cl |  | inactive |

Same assay, conditions: ACh EC20 potentiation, at 30 µM (top of the series)

| SMILES | % ACh max response |
| --- | --- |
| Cc1nc2sc(C(=O)NCc3nccs3)c(N)c2c(C)c1Cl | inactive |
| COc1ccc(C)c2sc(NC(=O)c3ccncc3)nc12 | inactive |
| Cc1nc2sc(C(=O)NCc3ccncn3)c(N)c2c(C)c1Cl | inactive |
| Cc1nc2sc(C(=O)NCc3cccc(F)c3F)c(N)c2c(C)c1Cl | inactive |
| Cc1nc2sc(C(=O)NCCc3ccncc3)c(N)c2c(C)c1Cl | inactive |
